Experimental data reported in patent US20140155397A1, “EMT SIGNATURES AND PREDICTIVE MARKERS AND METHOD OF USING THE SAME” (Board of Regents, priority 2011, published 2014).

Legend:
Ret = Ret (Homo sapiens, UniProt P07949); assay: Protein kinase panel; type: biochemical
Text: (§1) Purified recombinant AXL kinase was used to screen a library of structures with appropriate drug-like scaffolds to identify potential inhibitors. Hits from the screen were confirmed and r analyzed by selection criteria including Lipinski rules. One pyrrolopyrimidine-based compound was selected for structure-activity relationship efforts. Optimization of this scaffold and subsequent evaluation led to the generation of compound SG1-7079 as the lead candidate inhibitor (FIG. 10). […] SGI-7079 was screened against a panel of protein kinases to determine both selectivity and biochemical potency.

Flt3 = target: T1, Flt3 (Homo sapiens, UniProt P36888); assay: Protein kinase panel; type: biochemical
T1 sequence (P36888 27-993): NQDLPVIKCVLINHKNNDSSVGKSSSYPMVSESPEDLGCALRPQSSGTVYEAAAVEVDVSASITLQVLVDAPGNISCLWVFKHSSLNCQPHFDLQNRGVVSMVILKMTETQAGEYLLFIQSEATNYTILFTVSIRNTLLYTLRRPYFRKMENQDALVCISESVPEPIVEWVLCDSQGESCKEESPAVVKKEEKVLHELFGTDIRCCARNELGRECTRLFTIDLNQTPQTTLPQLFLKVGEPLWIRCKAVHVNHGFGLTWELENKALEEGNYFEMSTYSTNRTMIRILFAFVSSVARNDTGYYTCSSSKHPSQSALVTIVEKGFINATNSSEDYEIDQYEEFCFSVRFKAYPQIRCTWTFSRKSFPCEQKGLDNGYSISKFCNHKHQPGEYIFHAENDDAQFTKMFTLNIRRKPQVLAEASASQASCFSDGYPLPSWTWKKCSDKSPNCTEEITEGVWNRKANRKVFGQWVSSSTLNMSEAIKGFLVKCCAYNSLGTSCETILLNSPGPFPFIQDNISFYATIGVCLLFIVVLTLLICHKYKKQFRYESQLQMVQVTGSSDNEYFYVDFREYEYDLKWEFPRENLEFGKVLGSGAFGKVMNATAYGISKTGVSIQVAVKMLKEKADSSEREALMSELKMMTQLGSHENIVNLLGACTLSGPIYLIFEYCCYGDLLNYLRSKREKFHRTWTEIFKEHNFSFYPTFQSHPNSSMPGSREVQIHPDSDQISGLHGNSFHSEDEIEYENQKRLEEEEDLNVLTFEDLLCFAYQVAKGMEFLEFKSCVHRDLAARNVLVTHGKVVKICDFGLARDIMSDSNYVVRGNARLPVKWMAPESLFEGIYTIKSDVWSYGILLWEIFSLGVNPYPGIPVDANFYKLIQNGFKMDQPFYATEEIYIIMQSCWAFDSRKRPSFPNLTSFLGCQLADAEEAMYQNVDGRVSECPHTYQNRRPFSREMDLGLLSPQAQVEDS
Text: as §1

Jak2 = Jak2 (Homo sapiens, UniProt O60674); assay: Protein kinase panel; type: biochemical
Text: as §1

Syk = Syk (Homo sapiens, UniProt P43405); assay: Protein kinase panel; type: biochemical
Text: as §1

Flt1 = Flt1 (Homo sapiens, UniProt P17948); assay: Protein kinase panel; type: biochemical
Text: as §1

TrkB = TrkB (Homo sapiens, UniProt Q16620); assay: Protein kinase panel; type: biochemical
Text: as §1

TrkA = TrkA (Homo sapiens, UniProt P04629); assay: Protein kinase panel; type: biochemical
Text: as §1

Tyro3 = target: T2, Tyro3 (Homo sapiens, UniProt Q06418); assay: Protein kinase panel; type: biochemical
T2 sequence (Q06418 41-890): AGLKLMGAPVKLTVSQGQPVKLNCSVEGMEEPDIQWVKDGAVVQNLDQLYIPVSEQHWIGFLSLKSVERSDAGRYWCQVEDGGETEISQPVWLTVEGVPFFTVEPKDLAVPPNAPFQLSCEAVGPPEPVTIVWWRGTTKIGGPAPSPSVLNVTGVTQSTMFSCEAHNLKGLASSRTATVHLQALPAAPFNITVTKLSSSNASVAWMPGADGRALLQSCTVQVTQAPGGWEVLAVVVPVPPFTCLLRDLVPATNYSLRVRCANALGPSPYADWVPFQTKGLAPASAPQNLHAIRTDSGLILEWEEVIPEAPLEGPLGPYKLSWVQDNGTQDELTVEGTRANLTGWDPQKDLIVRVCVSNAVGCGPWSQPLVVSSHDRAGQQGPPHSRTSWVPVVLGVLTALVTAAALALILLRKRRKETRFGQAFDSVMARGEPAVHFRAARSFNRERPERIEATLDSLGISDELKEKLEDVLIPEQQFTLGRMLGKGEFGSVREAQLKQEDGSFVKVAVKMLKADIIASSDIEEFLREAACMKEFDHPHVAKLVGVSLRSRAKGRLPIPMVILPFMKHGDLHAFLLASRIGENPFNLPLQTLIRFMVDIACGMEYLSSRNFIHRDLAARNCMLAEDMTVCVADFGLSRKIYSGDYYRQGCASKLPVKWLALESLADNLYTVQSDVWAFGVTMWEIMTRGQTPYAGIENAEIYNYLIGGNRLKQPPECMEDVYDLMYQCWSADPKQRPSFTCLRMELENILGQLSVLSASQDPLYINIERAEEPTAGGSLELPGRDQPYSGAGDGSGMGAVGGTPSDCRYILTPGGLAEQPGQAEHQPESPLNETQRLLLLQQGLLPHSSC
Text: as §1

H157 = assay: Proliferation, CellTiter-Glo Luminescent Cell Viability; type: cell-based; details: single agent
Text: (§2) Average values were used for analysis as described. […] Chou T. C., et al., Quantitative Analysis of Dose-Effect Relationships: The Combined Effects of Multiple Drugs or Enzyme Inhibitors. Adv Enzyme Regul.

Calu-1 = assay: as above; type: cell-based; details: single agent
Text: as §2

H2882 = assay: as above; type: cell-based; details: single agent
Text: as §2

H1299 = assay: as above; type: cell-based; details: single agent
Text: as §2

H460 = assay: as above; type: cell-based; details: single agent
Text: as §2

A549 = assay: as above; type: cell-based; details: single agent
Text: as §2

Sequence of Ret (P07949 29-1114, species assumed): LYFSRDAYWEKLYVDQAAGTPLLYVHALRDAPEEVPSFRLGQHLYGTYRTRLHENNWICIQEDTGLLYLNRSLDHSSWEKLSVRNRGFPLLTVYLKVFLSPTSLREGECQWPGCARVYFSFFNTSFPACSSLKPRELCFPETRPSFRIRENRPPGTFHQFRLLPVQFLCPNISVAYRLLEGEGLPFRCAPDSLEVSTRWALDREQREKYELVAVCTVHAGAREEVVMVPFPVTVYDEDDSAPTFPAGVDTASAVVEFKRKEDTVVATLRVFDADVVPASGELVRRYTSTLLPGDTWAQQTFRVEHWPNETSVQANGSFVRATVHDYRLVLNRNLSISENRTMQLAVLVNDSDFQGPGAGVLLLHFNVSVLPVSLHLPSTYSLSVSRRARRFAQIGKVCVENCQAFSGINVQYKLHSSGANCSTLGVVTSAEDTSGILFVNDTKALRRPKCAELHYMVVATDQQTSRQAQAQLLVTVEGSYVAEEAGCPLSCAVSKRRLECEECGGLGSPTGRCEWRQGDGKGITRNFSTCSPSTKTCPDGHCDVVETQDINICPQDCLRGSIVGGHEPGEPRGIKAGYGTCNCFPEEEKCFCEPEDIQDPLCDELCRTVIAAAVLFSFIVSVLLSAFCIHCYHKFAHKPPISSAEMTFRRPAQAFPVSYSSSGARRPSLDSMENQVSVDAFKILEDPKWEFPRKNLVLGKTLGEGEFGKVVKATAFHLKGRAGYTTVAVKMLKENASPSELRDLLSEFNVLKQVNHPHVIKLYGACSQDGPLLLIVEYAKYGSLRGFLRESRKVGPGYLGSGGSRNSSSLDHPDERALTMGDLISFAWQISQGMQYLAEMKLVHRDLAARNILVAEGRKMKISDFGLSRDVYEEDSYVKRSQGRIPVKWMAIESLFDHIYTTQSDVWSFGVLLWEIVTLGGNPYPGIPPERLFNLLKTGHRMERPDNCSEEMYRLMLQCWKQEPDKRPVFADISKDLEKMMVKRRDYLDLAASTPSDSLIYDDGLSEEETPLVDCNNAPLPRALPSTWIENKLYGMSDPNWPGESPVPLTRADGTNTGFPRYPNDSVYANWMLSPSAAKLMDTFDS
Sequence of TrkB (Q16620 32-822, species assumed): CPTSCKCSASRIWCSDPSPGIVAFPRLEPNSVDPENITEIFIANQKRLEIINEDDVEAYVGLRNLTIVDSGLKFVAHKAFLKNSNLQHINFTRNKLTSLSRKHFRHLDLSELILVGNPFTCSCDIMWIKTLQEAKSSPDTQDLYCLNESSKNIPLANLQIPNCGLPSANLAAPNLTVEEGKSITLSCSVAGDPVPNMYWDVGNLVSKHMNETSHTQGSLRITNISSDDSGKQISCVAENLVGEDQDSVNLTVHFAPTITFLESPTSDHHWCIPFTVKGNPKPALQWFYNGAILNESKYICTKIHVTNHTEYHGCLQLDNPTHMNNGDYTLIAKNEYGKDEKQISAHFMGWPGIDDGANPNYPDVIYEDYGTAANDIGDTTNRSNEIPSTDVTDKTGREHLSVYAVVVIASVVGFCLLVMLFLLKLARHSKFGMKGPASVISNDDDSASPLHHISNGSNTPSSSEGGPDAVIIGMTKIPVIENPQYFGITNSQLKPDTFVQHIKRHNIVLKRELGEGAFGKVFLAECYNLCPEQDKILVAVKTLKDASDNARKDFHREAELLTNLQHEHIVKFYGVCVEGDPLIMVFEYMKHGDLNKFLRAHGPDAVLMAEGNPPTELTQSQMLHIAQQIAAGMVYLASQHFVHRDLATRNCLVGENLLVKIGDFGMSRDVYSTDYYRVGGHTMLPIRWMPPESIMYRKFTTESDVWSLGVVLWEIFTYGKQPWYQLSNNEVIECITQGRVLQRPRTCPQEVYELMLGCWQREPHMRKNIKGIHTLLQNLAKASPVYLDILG
Sequence of TrkA (P04629 33-796, species assumed): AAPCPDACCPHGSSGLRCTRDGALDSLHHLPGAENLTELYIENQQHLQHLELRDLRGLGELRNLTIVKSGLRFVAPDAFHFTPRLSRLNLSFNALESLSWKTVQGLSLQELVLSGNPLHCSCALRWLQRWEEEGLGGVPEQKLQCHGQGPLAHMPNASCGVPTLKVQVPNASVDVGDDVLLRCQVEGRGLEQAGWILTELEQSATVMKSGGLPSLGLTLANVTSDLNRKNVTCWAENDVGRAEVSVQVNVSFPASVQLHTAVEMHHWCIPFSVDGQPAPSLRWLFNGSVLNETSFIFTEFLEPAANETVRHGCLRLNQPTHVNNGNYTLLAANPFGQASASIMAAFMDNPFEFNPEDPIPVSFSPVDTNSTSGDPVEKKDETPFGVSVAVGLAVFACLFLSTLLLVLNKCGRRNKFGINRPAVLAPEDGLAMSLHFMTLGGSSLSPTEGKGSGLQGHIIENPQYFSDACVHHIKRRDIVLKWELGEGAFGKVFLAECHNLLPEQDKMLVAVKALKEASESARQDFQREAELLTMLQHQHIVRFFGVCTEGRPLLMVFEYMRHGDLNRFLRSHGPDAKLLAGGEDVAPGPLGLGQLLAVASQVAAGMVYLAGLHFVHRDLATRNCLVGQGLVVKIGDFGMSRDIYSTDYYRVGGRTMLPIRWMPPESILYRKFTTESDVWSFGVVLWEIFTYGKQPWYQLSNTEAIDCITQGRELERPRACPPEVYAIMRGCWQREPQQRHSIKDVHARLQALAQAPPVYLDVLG
Sequence of Jak2 (O60674 whole entry, species assumed): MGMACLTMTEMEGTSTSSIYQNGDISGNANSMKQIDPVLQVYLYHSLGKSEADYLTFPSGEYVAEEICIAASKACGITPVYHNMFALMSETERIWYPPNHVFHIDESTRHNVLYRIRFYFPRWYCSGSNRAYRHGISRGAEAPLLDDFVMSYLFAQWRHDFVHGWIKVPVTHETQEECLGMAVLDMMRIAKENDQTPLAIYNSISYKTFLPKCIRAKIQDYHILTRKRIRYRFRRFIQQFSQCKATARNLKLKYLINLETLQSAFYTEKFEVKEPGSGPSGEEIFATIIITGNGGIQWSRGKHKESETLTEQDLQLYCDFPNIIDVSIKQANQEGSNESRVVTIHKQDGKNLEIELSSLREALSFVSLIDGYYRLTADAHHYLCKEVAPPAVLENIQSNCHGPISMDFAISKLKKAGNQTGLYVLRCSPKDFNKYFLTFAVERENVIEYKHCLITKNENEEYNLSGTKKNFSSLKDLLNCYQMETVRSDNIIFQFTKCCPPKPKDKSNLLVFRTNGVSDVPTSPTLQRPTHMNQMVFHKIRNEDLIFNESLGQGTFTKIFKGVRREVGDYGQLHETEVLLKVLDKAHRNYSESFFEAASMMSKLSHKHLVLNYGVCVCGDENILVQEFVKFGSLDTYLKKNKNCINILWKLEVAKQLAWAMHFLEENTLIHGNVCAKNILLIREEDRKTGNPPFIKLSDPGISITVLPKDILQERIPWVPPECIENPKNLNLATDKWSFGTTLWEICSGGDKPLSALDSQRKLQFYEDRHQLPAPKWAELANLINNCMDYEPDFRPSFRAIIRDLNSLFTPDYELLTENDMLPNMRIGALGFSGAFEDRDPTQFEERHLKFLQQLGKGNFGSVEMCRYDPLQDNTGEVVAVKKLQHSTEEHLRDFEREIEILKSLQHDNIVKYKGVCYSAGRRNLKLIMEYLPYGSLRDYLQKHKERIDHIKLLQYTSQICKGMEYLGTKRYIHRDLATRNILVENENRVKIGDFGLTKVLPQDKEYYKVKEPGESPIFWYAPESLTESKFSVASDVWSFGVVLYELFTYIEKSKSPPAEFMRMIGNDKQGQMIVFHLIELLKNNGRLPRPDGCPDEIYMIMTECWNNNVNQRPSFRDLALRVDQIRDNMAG
Sequence of Flt1 (P17948 27-1338, species assumed): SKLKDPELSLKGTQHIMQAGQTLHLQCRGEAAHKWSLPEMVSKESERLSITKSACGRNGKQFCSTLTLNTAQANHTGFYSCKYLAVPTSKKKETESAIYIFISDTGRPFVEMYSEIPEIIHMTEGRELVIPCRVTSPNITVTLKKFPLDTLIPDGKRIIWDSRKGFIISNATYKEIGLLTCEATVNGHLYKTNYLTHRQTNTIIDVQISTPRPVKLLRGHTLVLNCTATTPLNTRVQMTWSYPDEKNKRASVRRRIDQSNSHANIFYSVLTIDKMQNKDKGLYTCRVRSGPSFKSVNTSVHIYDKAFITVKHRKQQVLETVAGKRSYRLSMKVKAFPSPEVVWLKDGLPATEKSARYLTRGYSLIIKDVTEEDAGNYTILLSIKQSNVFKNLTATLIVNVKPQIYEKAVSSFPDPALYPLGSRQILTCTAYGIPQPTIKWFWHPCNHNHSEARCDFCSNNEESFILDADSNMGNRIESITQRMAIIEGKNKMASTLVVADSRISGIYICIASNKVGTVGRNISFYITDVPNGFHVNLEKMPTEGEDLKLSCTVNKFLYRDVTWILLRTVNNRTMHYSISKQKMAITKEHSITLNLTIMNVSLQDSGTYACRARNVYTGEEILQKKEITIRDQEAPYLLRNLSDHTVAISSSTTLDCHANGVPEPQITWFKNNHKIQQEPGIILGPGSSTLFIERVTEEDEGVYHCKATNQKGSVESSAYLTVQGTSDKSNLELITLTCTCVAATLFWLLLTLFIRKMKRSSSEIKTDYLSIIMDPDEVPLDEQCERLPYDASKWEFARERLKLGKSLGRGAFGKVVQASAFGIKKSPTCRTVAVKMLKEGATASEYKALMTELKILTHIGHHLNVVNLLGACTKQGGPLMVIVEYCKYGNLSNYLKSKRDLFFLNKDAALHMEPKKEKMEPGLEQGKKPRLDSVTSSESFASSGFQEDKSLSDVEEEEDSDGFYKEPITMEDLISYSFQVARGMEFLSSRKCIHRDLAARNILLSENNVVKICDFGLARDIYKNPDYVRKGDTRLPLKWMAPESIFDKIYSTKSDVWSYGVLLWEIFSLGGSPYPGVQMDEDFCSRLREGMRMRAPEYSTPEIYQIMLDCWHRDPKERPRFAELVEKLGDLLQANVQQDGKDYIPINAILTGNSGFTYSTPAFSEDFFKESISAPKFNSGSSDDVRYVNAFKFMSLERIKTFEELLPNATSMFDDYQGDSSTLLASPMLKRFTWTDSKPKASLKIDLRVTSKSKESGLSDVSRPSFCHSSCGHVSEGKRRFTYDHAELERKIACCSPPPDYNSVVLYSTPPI

Inhibition of Ret (Ret): potent, low nM inhibition
Inhibition of Flt3 (Flt3): potent, low nM inhibition
Inhibition of Jak2 (Jak2): potent, low nM inhibition
Inhibition of Syk (Syk): potent, low nM inhibition
Inhibition of Flt1 (Flt1): potent, low nM inhibition
Inhibition of TrkB (TrkB): potent, low nM inhibition
Inhibition of TrkA (TrkA): potent, low nM inhibition
Inhibition of Tyro3 (Tyro3): similarly as AXL
IC50 (H157): 740 nM
IC50 (Calu-1): 2440 nM
IC50 (H2882): 4290 nM
IC50 (H1299): 1740 nM
IC50 (H460): 2010 nM
IC50 (A549): 920 nM
SMILES: Cc1c[nH]c2nc(Nc3ccc(N4CCN(C)CC4)c(F)c3)nc(-c3cccc(CC#N)c3)c12 [SGI-7079]
